We go through one compound from patent US20230247990A1, “Stable Botanical Antimicrobial Compositions” (The Trustees of Columbia University in the city of New York, priority 2020, published 2023).

The structures appear in SMILES notation.

The data set is described as follows: Accelerated aging method, long term stability at 45° C. It is filed as physicochemical. As to conditions: temperature higher than 40° C., including 45° C. of the accelerated aging method.

Method: In certain embodiments, the 1 year period is achieved through simulating such conditions with the accelerated aging method. The accelerated aging method can be conducted by keeping the solutions at 45° C. for 8 weeks, which is equivalent to stability of 1 year under regular, room temperature conditions.
The accelerated aging method was conducted by keeping the solutions at 45° C. for 8 weeks, which is equivalent to stability of 1 year at regular, room temperature conditions.

As for `C=CCCCCCCCCC(=O)O` [Undecylenic acid], the “Solubility in solvents at elevated temperature” value is “gradually precipitates”.
